This is an account of results in ChEMBL document CHEMBL1201862, “PubChem BioAssay data set” (2004).

SMILES strings stand for the structures. Activity calls are given as the source filed them.

Assay [1] addresses T1, Sentrin-specific protease 1 (Homo sapiens, UniProt Q9P0U3).
T1 sequence (Q9P0U3 whole entry): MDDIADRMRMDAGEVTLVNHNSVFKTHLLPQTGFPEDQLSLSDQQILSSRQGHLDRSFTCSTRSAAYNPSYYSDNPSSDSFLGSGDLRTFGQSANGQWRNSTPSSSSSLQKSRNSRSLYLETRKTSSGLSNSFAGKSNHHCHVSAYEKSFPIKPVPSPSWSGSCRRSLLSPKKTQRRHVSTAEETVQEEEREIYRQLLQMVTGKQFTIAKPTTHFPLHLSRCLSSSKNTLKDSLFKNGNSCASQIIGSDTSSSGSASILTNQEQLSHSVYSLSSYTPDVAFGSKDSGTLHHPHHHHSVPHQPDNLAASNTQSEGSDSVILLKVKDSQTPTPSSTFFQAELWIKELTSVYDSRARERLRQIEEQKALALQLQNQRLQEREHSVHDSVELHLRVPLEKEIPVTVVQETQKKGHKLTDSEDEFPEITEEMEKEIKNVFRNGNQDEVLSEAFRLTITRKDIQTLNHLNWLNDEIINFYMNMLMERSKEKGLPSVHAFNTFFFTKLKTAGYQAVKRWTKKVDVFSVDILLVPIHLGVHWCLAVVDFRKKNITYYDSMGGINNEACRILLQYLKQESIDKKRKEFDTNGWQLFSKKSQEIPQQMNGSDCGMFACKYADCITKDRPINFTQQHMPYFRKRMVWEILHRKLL
Kind of assay: SENP1 catalytic domain blockers, concentration series – biochemical, kinetic FRET, dose response (AID 651697). The format is functional. Particulars: read-out: IC50_Mean.

Assay [2] has as its target T1, Sentrin-specific protease 1. Description: Dose response confirmation of small molecule inhibitors of the catalytic domain of the SUMO protease, SENP1 in a FRET assay. The format is functional. To be noted: read-out: IC50_Mean.
A short description of assay [3]: activation of miR-122 Renilla sensor silencing – cell-based, Huh7 psiCHECK-miR122, Renilla luciferase, cherry-picked, dose response (AID 651956).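 Further: huh7 hepatoma cells stably carrying a psiCHECK-2 miR-122 sensor plasmid; renilla luciferase signal reporting endogenous miR-122 activity after 48 h compound exposure.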 The format is functional.
Assay [4] addresses T2, Type-1 angiotensin II receptor (Homo sapiens, UniProt P30556).
T2 sequence (P30556 whole entry): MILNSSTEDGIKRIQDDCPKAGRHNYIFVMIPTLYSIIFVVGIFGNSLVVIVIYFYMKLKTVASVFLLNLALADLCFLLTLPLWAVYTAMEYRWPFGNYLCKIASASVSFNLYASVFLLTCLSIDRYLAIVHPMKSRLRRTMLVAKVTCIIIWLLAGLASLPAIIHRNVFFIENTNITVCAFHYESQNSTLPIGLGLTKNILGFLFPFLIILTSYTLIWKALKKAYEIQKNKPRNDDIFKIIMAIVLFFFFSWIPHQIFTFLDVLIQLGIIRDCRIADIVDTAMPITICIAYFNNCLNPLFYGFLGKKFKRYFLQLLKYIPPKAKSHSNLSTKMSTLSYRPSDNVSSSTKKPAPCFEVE
Description: antagonism of angiotensin II type 1 receptor – cell-based, uHTS hits, selectivity assay for APJ receptor antagonist project, dose response (AID 463214).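 Further: antagonist potency against angiotensin II stimulated AT1 response.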 The format is functional.

For the next assay, the target named is Beta-galactosidase (Escherichia coli, UniProt Q8VNN2). Kind of assay: PubChem AID 485352. The format is functional.
In the next assay the test system is INS1. Description: INS-1E survival protection against cytokine death – cell-based, luminescence, retest, dose response (AID 449756).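 Further: cell death triggered by IL-1 beta plus TNF-alpha plus IFN-gamma mixture; protective hits raise ATP signal compared with cytokine alone wells.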 The format is functional. Particulars: Rattus norvegicus.
For assay [5], the target named is T3, Microphthalmia-associated transcription factor (Homo sapiens, UniProt O75030).
T3 sequence (O75030 whole entry): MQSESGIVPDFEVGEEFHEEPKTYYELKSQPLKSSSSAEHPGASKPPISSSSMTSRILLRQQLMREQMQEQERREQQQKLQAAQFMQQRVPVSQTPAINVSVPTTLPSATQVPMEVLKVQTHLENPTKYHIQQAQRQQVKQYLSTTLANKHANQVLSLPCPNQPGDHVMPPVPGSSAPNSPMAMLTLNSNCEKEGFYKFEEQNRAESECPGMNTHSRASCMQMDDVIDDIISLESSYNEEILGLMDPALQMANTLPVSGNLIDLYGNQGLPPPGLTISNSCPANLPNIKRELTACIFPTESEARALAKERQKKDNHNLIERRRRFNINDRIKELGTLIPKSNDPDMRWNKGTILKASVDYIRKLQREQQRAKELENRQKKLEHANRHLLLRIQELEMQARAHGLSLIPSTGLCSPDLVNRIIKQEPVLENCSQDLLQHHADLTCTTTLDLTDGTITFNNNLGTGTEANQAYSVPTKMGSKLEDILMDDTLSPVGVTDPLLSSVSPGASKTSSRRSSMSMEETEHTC
Kind of assay: reducers of TRPM1 reporter luminescence, concentration series – cell-based, SK-MEL-5, cherry-picked, set 3, MITF inhibitor project, dose response (AID 493073).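 Further: SK-MEL-5 melanoma cells with luciferase driven by the MITF target TRPM1 promoter.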 The format is functional.

The test system of assay [6] is Streptococcus sp. 'group A'. Description: Streptococcus pyogenes SK(-)GAS viability under kanamycin – luminescence, BacTiterGlo, confirmation, counter-screen for streptokinase expression inhibitor project, dose response (AID 1900). The format is functional, organism-based. A general note: Counterscreens check selectivity or assay interference.
The next assay has as its system Streptococcus. Kind of assay: GAS UMAA2166 growth inhibition – luminescence, BacTiterGlo, counter-screen for streptokinase expression inhibitor project, dose response (AID 1915).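 Further: potency for reduction of bacterial viability or growth.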 The format is functional, organism-based.
The next assay concerns the target Protein Wnt-3a (Mus musculus, UniProt P27467). Kind of assay: antagonism of Wnt3a pathway luciferase reporter – Wnt-LIGHT cells, luminescence, selectivity assay for Gli-SUFU antagonist project, dose response (AID 651570).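 Further: Wnt-LIGHT reporter cells stimulated with conditioned medium from Wnt3a-producing cells.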 The format is functional. To be noted: read-out: IC50_Mean.
In assay [7] the target is Photoreceptor-specific nuclear receptor (Homo sapiens, UniProt Q9Y5X4). The format is functional, cell-based.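 Further: CHO-S cells with Gal4-NCOR and VP16-NR2E3 two-hybrid luciferase reporter.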
For assay [8], the target named is T4, Heat shock factor protein 1 (Mus musculus, UniProt P38532).
T4 sequence (P38532 whole entry): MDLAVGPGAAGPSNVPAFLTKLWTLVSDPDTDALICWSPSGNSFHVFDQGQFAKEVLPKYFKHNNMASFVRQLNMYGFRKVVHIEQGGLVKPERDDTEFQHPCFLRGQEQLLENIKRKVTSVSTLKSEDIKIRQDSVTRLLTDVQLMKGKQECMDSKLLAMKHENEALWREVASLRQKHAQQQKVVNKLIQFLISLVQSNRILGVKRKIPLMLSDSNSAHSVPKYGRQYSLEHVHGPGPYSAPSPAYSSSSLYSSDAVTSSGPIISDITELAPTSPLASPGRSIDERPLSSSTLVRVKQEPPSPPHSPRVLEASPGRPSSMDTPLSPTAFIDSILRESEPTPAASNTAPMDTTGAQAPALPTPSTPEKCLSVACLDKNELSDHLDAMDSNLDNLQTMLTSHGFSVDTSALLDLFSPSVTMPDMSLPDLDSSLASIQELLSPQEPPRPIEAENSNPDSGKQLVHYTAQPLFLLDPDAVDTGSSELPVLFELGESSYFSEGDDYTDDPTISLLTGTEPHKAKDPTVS
Description: enhancement of HSF1-driven luciferase signal – cell-based, NIH3T3, luminescence, dose retest, confirmation (AID 435004).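 Further: stress induced by proteasome inhibitor MG132 added 30 min after compound; luciferase reporter driven by HSF1 response element in NIH3T3 cells; actives raise luminescence as potentiators of the MG132 stress response.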 The format is functional.

A further assay addresses Large T antigen (Simian virus 40, UniProt P03070). The format is functional, Betapolyomavirus macacae.
For assay [9], the target named is T5, Rac GTPase-activating protein 1 (Homo sapiens, UniProt Q9H0H5).
T5 sequence (Q9H0H5 whole entry): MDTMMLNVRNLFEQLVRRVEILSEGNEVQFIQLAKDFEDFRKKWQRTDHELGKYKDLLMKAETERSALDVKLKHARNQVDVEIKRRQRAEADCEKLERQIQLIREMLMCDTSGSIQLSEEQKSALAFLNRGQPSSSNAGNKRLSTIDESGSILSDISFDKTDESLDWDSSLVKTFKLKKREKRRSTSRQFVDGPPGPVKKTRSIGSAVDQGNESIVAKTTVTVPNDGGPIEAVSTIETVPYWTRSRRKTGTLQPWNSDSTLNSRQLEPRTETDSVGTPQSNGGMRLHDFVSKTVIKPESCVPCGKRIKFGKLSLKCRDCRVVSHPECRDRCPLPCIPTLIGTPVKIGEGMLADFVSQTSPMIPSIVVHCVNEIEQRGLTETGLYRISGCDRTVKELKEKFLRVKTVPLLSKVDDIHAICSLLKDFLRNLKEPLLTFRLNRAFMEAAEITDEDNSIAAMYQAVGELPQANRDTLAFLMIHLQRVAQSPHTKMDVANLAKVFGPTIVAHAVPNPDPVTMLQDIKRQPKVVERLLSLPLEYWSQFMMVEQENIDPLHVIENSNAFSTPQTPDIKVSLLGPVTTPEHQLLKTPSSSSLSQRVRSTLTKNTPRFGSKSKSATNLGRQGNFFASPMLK
Description: blockers of MgcRacGAP-driven Rac1 GTP hydrolysis – biochemical, ADP Hunter fluorescence, primary and confirmatory, confirmation (AID 624330). It is filed as functional.

The term AC50 denotes the concentration giving half of the maximal activity seen. By EC50 is commonly meant the concentration that produces a half-maximal response.

Large T antigen, sequence (P03070 whole entry): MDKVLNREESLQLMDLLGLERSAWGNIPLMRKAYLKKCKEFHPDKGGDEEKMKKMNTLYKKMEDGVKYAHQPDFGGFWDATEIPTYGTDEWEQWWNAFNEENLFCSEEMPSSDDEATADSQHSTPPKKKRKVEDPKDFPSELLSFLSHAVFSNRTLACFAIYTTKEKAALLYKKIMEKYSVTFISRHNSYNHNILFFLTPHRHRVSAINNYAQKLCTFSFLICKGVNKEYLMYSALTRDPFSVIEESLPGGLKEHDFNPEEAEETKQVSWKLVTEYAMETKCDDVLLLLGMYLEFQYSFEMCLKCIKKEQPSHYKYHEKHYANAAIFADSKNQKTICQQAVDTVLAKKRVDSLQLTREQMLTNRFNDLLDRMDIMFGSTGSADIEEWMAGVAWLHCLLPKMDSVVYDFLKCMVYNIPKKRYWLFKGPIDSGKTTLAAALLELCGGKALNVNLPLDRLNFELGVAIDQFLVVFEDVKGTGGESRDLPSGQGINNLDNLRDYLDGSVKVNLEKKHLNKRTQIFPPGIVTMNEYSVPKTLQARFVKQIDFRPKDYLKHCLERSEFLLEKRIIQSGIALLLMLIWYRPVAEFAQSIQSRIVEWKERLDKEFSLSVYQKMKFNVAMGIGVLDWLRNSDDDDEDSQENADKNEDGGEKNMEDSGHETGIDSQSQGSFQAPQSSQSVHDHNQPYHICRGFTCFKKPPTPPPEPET
Beta-galactosidase, sequence (Q8VNN2 whole entry): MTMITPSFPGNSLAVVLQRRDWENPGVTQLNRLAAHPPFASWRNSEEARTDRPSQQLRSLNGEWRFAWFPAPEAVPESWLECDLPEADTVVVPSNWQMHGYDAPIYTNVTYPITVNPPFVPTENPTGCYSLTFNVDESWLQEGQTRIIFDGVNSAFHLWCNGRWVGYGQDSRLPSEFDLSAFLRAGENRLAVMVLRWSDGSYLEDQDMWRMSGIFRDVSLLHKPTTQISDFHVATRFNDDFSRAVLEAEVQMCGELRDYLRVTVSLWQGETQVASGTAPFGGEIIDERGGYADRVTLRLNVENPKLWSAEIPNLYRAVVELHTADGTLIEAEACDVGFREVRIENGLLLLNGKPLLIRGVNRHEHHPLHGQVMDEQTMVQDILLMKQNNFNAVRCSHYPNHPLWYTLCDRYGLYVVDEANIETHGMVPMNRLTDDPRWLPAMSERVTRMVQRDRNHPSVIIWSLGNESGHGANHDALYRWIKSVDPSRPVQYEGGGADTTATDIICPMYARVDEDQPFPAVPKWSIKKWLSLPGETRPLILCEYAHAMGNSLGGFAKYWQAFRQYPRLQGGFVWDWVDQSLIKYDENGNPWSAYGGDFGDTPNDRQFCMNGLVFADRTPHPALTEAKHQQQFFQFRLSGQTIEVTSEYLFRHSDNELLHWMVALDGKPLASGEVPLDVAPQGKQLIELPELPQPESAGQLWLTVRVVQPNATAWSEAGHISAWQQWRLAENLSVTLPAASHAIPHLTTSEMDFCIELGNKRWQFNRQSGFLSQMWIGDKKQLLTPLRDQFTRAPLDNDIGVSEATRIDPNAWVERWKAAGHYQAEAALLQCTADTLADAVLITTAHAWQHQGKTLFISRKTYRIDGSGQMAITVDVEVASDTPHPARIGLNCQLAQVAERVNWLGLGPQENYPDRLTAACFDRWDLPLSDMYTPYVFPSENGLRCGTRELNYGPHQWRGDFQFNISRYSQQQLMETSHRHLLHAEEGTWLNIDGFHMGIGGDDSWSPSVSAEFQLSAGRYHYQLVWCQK
Photoreceptor-specific nuclear receptor, sequence (Q9Y5X4 whole entry, the tested form may be a part): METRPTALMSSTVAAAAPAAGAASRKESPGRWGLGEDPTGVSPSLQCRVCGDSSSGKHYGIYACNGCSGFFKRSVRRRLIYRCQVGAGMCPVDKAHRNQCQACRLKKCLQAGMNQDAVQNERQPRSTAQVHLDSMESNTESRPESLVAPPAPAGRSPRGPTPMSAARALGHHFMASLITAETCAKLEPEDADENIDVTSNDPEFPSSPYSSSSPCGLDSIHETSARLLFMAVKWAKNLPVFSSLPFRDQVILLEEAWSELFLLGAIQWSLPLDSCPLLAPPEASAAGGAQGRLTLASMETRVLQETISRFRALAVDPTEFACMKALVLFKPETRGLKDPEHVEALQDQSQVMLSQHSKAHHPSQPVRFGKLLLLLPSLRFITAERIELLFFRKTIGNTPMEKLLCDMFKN
Protein Wnt-3a, sequence (P27467 whole entry, the tested form may be a part): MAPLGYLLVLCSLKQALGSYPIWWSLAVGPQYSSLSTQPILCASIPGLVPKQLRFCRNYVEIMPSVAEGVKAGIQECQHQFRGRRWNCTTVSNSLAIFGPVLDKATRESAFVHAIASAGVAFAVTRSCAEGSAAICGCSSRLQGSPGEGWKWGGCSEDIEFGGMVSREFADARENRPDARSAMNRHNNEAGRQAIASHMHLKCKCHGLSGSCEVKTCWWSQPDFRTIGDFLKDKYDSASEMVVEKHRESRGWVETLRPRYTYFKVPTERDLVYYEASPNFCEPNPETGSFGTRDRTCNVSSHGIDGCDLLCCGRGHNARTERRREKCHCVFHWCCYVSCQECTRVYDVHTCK

Take `c1ccc(CN2CCN(C3=Nc4cccc5cccc3c45)CC2)cc1`: the figures for the IC50 in assay [1] and in assay [2] were 7.01 µM (active) and 7.24 µM (active), respectively.

`Cc1ccccc1-c1ccc2c(c1)O[C@@H](CN(C)C(=O)Nc1ccc(F)cc1)[C@@H](C)CN([C@@H](C)CO)S2(=O)=O`: the AC50 in assay [3] is 18.5 µM (active).

On to `C/C(=N\NC(=O)COc1ccccc1-c1ccccc1)c1ccccn1`, for which the IC50 in [4] was 3.73 µM (active). Further, the EC50 was > 40 µM (inactive) at Beta-galactosidase, 1.05 µM (active) in assay [6] and 4.08 µM (active) in the assay with Streptococcus. In addition, the AC50 in the assay on INS1 is 1.32 µM (active); in assay [5], 4.58 µM (active).

As for `O=C1N/C(=C\c2ccc(O)cc2)C(O)=C1/C=N/Cc1ccccc1`, the IC50 was 7.28 µM (active) on Protein Wnt-3a, 3.35 µM (active) in [7], 12.1 µM (active) at Large T antigen and 13 µM (active) in assay [9]. Besides, in assay [8], the EC50 is 5.35 µM (active).

In the case of `CCCC#Cc1ccc2c(c1)O[C@H](CN(C)C(=O)c1ccncc1)[C@H](C)CN([C@@H](C)CO)S2(=O)=O`, in [3], the concentration at half-maximal activity (AC50) is 1.06 µM (active).

On to `CCC(=O)N1C[C@H]2[C@@H](c3ccccc31)[C@H](CO)N2C(=O)Nc1ccccc1F`, for which the AC50 in assay [3] was 4.38 µM (active).
